The source made the active and inactive calls. The calls are words filed in the database; no cut-off is given here.
Experiments:
LNCaP [1] = experiment: Induction of apoptosis in human androgen-dependent LNCAP cells assessed as inhibition of PSA gene expression at 95 uM by RT-PCR analysis; format: functional, cell-based
[2] = Induction of apoptosis in human hormone-refractory C4-2B cells assessed as cell viability after 24 hrs by MTT assay; format: functional; settings: LNCaP C4-2B
LNCaP [3] = experiment: Induction of apoptosis in human androgen-dependent LNCAP cells assessed as […] after 24 hrs by MTT assay; format: functional, cell-based
LNCaP [4] = experiment: Induction of apoptosis in human androgen-dependent LNCAP cells assessed as inhibition of androgen receptor expression at 95 uM by Western blot analysis; format: functional, cell-based; settings: TDE = time-dependent effect
LNCaP [5] = experiment: Induction of apoptosis in human androgen-dependent LNCAP cells assessed as inhibition of PSA protein expression at 95 uM by Western blot analysis; format: functional, cell-based; settings: TDE = time-dependent effect
LNCaP [6] = experiment: Induction of apoptosis in human androgen-dependent LNCAP cells assessed as inhibition of androgen receptor gene expression at 95 uM by RT-PCR analysis in presence of 1 nM […]; format: functional, cell-based
LNCaP [7] = experiment: Induction of apoptosis in human androgen-dependent LNCAP cells assessed as PARP cleavage at 95 uM after 12 hrs by Western blot analysis; format: functional, cell-based
LNCaP [8] = experiment: Induction of apoptosis in human androgen-dependent LNCAP cells assessed as inhibition of PSA gene expression at 95 uM by RT-PCR analysis in presence of 1 nM […]; format: functional, cell-based
LNCaP [9] = experiment: Induction of apoptosis in human androgen-dependent LNCAP cells assessed as increase in active caspase 9 at 95 uM up to 48 hrs by Western blot analysis; format: functional, cell-based
LNCaP [10] = experiment: Induction of apoptosis in human androgen-dependent LNCAP cells assessed as increase in active caspase 3 at 95 uM up to 48 hrs by Western blot analysis; format: functional, cell-based
LNCaP [11] = experiment: Induction of apoptosis in human androgen-dependent LNCAP cells assessed as nuclei DNA fragmentation at 95 uM after 24 hrs by TUNEL assay; format: functional, cell-based
LNCaP [12] = experiment: Induction of apoptosis in human androgen-dependent LNCAP cells assessed as inhibition of androgen receptor gene expression at 95 uM by RT-PCR analysis; format: functional, cell-based
LNCaP [13] = experiment: Induction of apoptosis in human androgen-dependent LNCAP cells assessed as cytochrome c release from mitochondria at 95 uM after 24 hrs by Western blot analysis; format: functional, cell-based

With `C=CC1CC2(O)CC3(O)CCC=CC3C2(O)C1(O)CCC` (stereo not drawn) as the compound, how does the Activity (LNCaP [1]) read?
The Activity was “Active”.

What about the IC50 [2] of the same compound?
Its IC50 is 199 µM.

And the IC50 (LNCaP [3])?
Its IC50 is 95 µM.

And the Activity (LNCaP [4])?
The Activity was “tde”.

What about the Activity (LNCaP [5]) of the same compound?
Its Activity is “tde”.

And the Activity (LNCaP [6])?
The Activity was “Active”.

And the Activity (LNCaP [7])?
Its Activity is “Active”.

And the Activity (LNCaP [8])?
The Activity was “Active”.

What about the Activity (LNCaP [9]) of the same compound?
The Activity was “Active”.

And the Activity (LNCaP [10])?
The Activity was “Active”.

And the Activity (LNCaP [11])?
The Activity was “Active”.

And the Activity (LNCaP [12])?
The Activity was “Active”.

And the Activity (LNCaP [13])?
Its Activity is “Active”.
